Values quoted from earlier work as cited in patent US20110294879A1, “METHOD OF TREATMENT OF FRAGILE X SYNDROME, DOWN'S SYNDROME, AUTISM AND RELATED DISORDERS” (XENOPORT, INC., priority 2010, published 2011).

Legend:
[1] = system: subjects with FXS and comorbid autistic disorder
[2] = system: Fmr KO mice; conditions: Bear et al patents
[3] = humans
[4] = system: autistic children

SMILES: CC(=O)NCCCS(=O)(=O)O [CAMPRAL, acamprosate calcium]
- adverse GI events ([1]; fragile X subjects treated in the study): observed in the majority of fragile X subjects
- Clinical Global Impression (CGI-I) ([1]; subjects with FXS and comorbid autistic disorder, Erickson et al 2010): significant symptomatic improvements

SMILES: Cc1cccc(C#Cc2ccccc2)n1 [MPEP, 2-methyl-6-(phenylethynyl)-pyridine]
- behavioral and developmental phenotypes [2]: reverse behavioral and developmental phenotypes

SMILES: CC(=O)NCCCS(=O)(=O)O [acamprosate, 3-(Acetylamino)propylsulfonic acid]
- oral bioavailability [3]: about 11%

SMILES: Cc1nc2n(c(=O)c1CCN1CCC(c3noc4cc(F)ccc34)CC1)CCCC2 [risperidone]
- social isolation and communication [4]: not improved
- irritability subscale of the Aberrant Behavior Checklist and Clinical Global Impressions-Improvement ([4]; McCracken et al 2002): significant improvement
